Measured values published in patent US20150315218A1, “SALTS OF PRODRUGS OF PIPERAZINE AND SUBSTITUTED PIPERIDINE ANTIVIRAL AGENTS” (Bristol-Myers Squibb Company, priority 2004, published 2015).
≈ marks a conversion by molar mass, not a printed value. Like-named read-outs stand apart in the source and are kept apart here. One block for each compound: values may come before it.

Legend:
[1] = Oral dosing studies of prodrugs Ie and If in rats (Table 47); type: in vivo, rat; conditions: for parent molecule in plasma following PO dosing of prodrug: rats, oral dosing of prodrug Ie or If
Procedure: Prodrug Ie was dosed orally to rats using methodology similar to that described above for the other prodrugs. […] Prodrug If was dosed orally to rats using methodology similar to that described above for the other prodrugs.

[2] = tested on: HIV-1 T-tropic strain LAI; assay: Antiviral assay: HIV-1 LAI infection of MT-2 cells, reverse transcriptase readout (EC50, Table 48); type: cell-based; conditions: Human immunodeficiency virus 1, MT2, read-out: EC50-LAI
Text: The materials and experimental procedures used to assess the anti-HIV activity of the parent compounds which are generated from the prodrugs in vivo are described below:
• The human T cell line MT-2 and PM1 (AIDS Research and Reference Reagent Program, National Institutes of Health) were maintained and propagated in Medium RPMI-1640 (Invitrogen, Carlsbad, Calif.), containing 10% fetal Bovine serum. (FBS, Sigma, St. Louis, Mo.).
• Laboratory strains of HIV-1—the T-tropic strain LAI was obtained through the AIDS Research and Reference Reagent Program, National Institutes of Health. It was amplified in MT-2 cells and titered using a virus yield assay (2). Detection was achieved through use of a reverse transcriptase assay (3), adapted for use with a Scintillation Proximity detection protocol (1) (Amersham Biosciences, Piscataway, N.J.).
• 1. Compounds stocks were prepared by dissolving in DMSO to 30 mM. For dilution plates, compounds were serially diluted 3-fold into DMSO, using 96-well polypropylene plates, so that the concentrations were 100-fold greater than the final assay concentration. For antiviral and cytotoxicity assays, 2 μl was added per well (1% final DMSO concentration). • 2. Compounds were added from dilution plates to 96 well tissue culture plates, containing 100 μl Medium RPMI-1640, containing 10% fetal bovine serum at a concentration of <20 μM. • 3. For antiviral assays, cells were infected at a multiplicity of infection of 0.005. After 1 h at 37° C., infected cells were diluted to 200,000 cells per ml in Medium RPMI-1640, containing 10% fetal bovine serum. 100 μl of this solution was added per well, giving a final volume of 200 μl. • 4. Plates were incubated at 37° C. in a humidified CO2 incubator and harvested after 5 days. • 5. Viral infections were monitored by measuring reverse transcriptase activity in the supernatants of infected wells as described above. The percent inhibition for each compound was calculated by quantifying the readout level in cells infected in the presence of each compound as a percentage of that observed for cells infected in the absence of compound and subtracting such a determined value from 100. • 6. An EC50 provides a method for comparing the antiviral potency of the compounds of this invention. The effective concentration for fifty percent inhibition (EC50) was calculated with the Microsoft Excel Xlfit curve fitting software. For each compound, curves were generated from percent inhibition calculated at 8 different concentrations by using a four paramenter logistic model (model 205).

[3] = Cytotoxicity assay (XTT dye reduction) in MT-2 cells; type: cell-based; conditions: human, six days
[4] = 2-week oral dose rat toxicology / TK study F; type: in vivo; conditions: for AUC(0-t): Sprague-Dawley, rat, plasma, oral, dosages 200 mg/kg/day, read-out: AUC0-24 h on Day 14
Procedure: In the 2-week oral rat study F (n=six/sex/group), Compound IVe was administered at daily doses of 15, 75, or 200 mg/kg. […] On Day 14, AUC0-24 h values were slightly higher in females (≦644 μg*hr/ml) compared to males (526.88 μg*hr/ml) at dosages 200 mg/kg/day. The oral (PO) results from Study F are in Table 5.

[5] = IV and oral rat PK (MAP) studies A, B, C of phosphate prodrugs and parent studies A1, B1, C1; type: in vivo, Sprague-Dawley rats; conditions: for In vivo conversion in Rats-iv (note 2) MAP study: dose equiv. to 1 mg/Kg of the parent; for In vivo conversion in Rats-iv (note 2) MAP study / In vivo conversion in Rats-oral (note 2) MAP study: full wording: Rapid generation of parent in plasma; for clearance / Vd / half-life: male, Sprague-Dawley, rat, 1 mg/kg; for clearance / Vd / half-life / AUC 0-24 h (μM * hr) / Cmax (uM) / Cp @ 24 hr p.o. (nM): rats; for clearance / Vd: prodrug IV equivalent to 1 mpk of parent; for clearance: read-out: CL i.v.; for Vd: read-out: Vss i.v.; for half-life: after IV prodrug dosing equivalent to 1 mpk of parent, read-out: T1/2 i.v. (converted); for half-life / AUC 0-24 h (μM * hr) / Cmax (uM) / Cp @ 24 hr p.o. (nM): analyte = label; for In vivo conversion in Rats-oral (note 2) MAP study: dose equiv. to 5 mg/Kg of the parent; for AUC 0-24 h (μM * hr) / Cmax (uM) / Cp @ 24 hr p.o. (nM): after PO prodrug dosing equivalent to 5 mpk of parent
Procedure: The rats for oral dosing studies were fasted overnight. […] The dosing solutions of all three prodrugs for both IV and oral administration were prepared in 100% normal saline at 1 mg/mL (dosing solution concentrations were parent compound equivalent). Plasma samples were collected in EDTA vacutainers over 24 hrs, and analyzed by LC/MS/MS for both the prodrugs and parent molecules. Pharmacokinetic analysis was performed on Kinetica™.
Plasma and tissue samples were collected and stored at −20° C. until analysis. […] Rats were fasted overnight in PO studies. […] In the PO studies, rats (n=3) received PO doses of 5 and 100 mg/kg.
Male Sprague-Dawley rats (300-350 g, Hilltop Lab Animals, Inc., Scottdale, Pa.) with cannulas implanted in the jugular vein and/or bile duct were used. The rats were fasted overnight in the PO pharmacokinetic studies. Blood samples of 0.3 ml were collected from the jugular vein in EDTA-containing microtainer tubes (Becton Dickinson, Franklin Lakes, N.J.), and centrifuged to separate plasma.

physchem = conditions: pH 6.5, aqueous buffer
[6] = target: T1, alkaline phosphatase (human placenta, Sigma) (Homo sapiens, UniProt P05187); assay: In vitro conversion in alkaline phosphatase (Table 1, note 1); type: in vitro ADME; conditions: ~0.2 mM prodrug, ~1.4 unit ALP, pH 8 Tris buffer; full wording: Complete and rapid conversion to parent without any intermediate formation
T1 construct: Qualitative in vitro studies using human placental alkaline phosphatase; purchased Sigma; host or cells: human placenta (as the result head says)
T1 sequence (P05187 23-506 limits assumed): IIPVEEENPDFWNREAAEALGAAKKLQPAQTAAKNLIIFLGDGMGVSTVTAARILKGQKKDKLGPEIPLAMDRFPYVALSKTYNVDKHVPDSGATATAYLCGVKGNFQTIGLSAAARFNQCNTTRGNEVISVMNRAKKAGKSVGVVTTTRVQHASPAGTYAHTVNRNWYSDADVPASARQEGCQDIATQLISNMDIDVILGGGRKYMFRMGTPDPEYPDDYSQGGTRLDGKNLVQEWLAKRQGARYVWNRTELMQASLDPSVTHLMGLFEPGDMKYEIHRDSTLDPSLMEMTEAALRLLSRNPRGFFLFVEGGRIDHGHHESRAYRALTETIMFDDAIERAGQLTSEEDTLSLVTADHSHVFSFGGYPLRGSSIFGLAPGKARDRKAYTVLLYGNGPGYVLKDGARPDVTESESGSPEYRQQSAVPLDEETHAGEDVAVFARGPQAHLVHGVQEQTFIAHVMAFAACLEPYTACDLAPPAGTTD

- F (%) (calc on historical IV data for parent) ([1]; rat, diester prodrug IIe PO 7.0 mg/kg (IVe eq), PK of IVe only): 7.7%
- Cp @ 24 hr p.o. ([1]; rat, diester prodrug IIe PO 7.0 mg/kg (IVe eq), PK of IVe only, 1/3 rats): 8.17 (1/3 rats) nM
Structure (SMILES): COc1cnc(-n2cnc(C)n2)c2c1c(C(=O)C(=O)N1CCC(=C(C#N)c3ccccn3)CC1)cn2COP(=O)(OC(C)(C)C)OC(C)(C)C [IIe]

- parent molecule in plasma following PO dosing of prodrug [1]: detected in the plasma
Structure (SMILES): COc1cnc(-n2cnc(C)n2)c2[nH]cc(C(=O)C(=O)N3CCC(=C(C#N)c4ccccn4)CC3)c12 [IVe, 2-(1-(2-(4-methoxy-7-(3-methyl-1H-1,2,4-triazol-1-yl)-1H-pyrrolo[2,3-c]pyridin-3-yl)-2-oxoacetyl)piperidin-4-ylidene)-2-(pyridin-2-yl)acetonitrile]
- AUC(0-t) ([4]; female, females): ≤ 644 µg·h/mL
- AUC(0-t) ([4]; male, males): 527 µg·h/mL
- autoinduction or accumulation ([4]; toxicokinetic evaluations on days 1 and 14): no evidence of autoinduction or accumulation

- In vivo conversion in Rats-iv (note 2) MAP study [5]: Rapid
- clearance ([5]; plasma): 16 ± 0.95 mL/min/kg
- Vd ([5]; plasma): 0.095 ± 0.001 L/kg
- half-life ([5]; plasma, iv): 8.4 ± 1.2 min
- In vivo conversion in Rats-oral (note 2) MAP study [5]: Rapid
- AUC 0-24 h (μM * hr) [5]: LLQ
- Cmax (uM) [5]: LLQ
- Cp @ 24 hr p.o. (nM) [5]: LLQ
- solubility (physchem): > 18000 µg/mL
- In vitro conversion in Alkaline phosphatase (note 1) [6]: Complete
Structure (SMILES): COc1cnc(OC)c2c1c(C(=O)C(=O)N1CCN(C(=O)c3ccccc3)CC1)cn2COP(=O)(O)O [Ia]

- solubility (physchem): 1000 µg/mL (≈ 1710 µM)
- In vitro conversion in Alkaline phosphatase (note 1) [6]: Complete
Structure (SMILES): COc1cnc(-n2cnc(C)n2)c2c1c(C(=O)C(=O)N1CCN(C(=O)c3ccccc3)CC1)cn2COP(=O)(O)O [Ic]

Continued, compound first:

Structure (SMILES): COc1cnc(-n2ccc(C)n2)c2[nH]cc(C(=O)C(=O)N3CCN(C(=O)c4ccccc4)[C@H](C)C3)c12 [IVd]
- EC50 [2]: < 1 µM
- CC50 at 6 days [3]: > 10 µM

Structure (SMILES): O=C(C(=O)N1CCN(c2ncnc3ccccc23)CC1)c1c[nH]c2c(-n3ccnn3)ncc(F)c12 [IVf]
- parent molecule in plasma following PO dosing of prodrug [1]: detected in the plasma

Structure (SMILES): O=C(C(=O)N1CCN(C(=O)c2ccccc2)CC1)c1cn(COP(=O)([O-])[O-])c2c(-n3ccnn3)ncc(F)c12.[Na+].[Na+] [Ib]
- In vivo conversion in Rats-iv (note 2) MAP study [5]: Rapid
- half-life ([5]; in vivo): 108 ± 72 min
- clearance ([5]; in vivo): 46 ± 10 mL/min/kg
- Vd ([5]; in vivo): 0.97 ± 0.47 L/kg
- In vivo conversion in Rats-oral (note 2) MAP study [5]: Rapid
- AUC 0-24 h (μM * hr) [5]: LLQ
- Cmax (uM) [5]: LLQ
- Cp @ 24 hr p.o. (nM) [5]: LLQ
- solubility (physchem): > 8000 µg/mL
- In vitro conversion in Alkaline phosphatase (note 1) [6]: Complete
